Data on 3 molecules can be found in patent US9481667B2, “Salts and solid forms of isoquinolinones and composition comprising and methods of using the same” (Infinity Pharmaceuticals, Inc., priority 2013, dated 2016).

What all share (assay type): physicochemical
A short description of data set [1]: Storage at 40° C./75% RH (solid-state stability). The settings on record: for Storage 40° C./75% RH for 1 week: HPLC Purity / Storage 40° C./75% RH for 1 week: XRPD (D8): 0.5 g scale-up salts; for Stability on storage at 40° C./75% RH: 1 week, solid form by XRPD.
Protocol: The crystalline solids were filtered, dried at ambient conditions, and stored at 40° C./75% RH for 1 week and analyzed by ^1H NMR/IC.
Samples from the screen using amorphous free base Compound 1 were analysed by ^1H-NMR and DSC, and re-analysis by XRPD was also carried out after drying at 50° C./vacuum and storage at 40° C./75% RH (the same sample was dried and stored at elevated humidity).
A short description of data set [2]: Storage at 25° C./93% RH (solid-state stability). Particulars: for Storage 25° C./93% RH for 1 week: HPLC Purity / Storage 25° C./93% RH for 1 week: XRPD (D8): 0.5 g scale-up salts; for Stability on storage at 25° C./93% RH: 1 week, solid form by XRPD.
Data set [3] is described as follows: Gravimetric vapour sorption (GVS). Particulars: for XRPD post GVS (C2): 0.5 g scale-up salts; for GVS Single cycle: hygroscopicity, 0-90% RH; for GVS: moisture content reached on uptake at 40-50% RH: remains stable on sorption up to 90% RH and on desorption down to 10% RH. Here is the method: Sorption isotherms were obtained using a Hiden IGASorp moisture sorption analyser, controlled by CFRSorp software. The sample temperature was maintained at 25° C. by a Huber re-circulating water bath. The humidity was controlled by mixing streams of dry and wet nitrogen, with a total flow rate of 250 ml/min. The relative humidity (RH) was measured by a calibrated Vaisala RH probe (dynamic range of 0-95% RH), located near the sample. The weight change, (mass relaxation) of the sample as a function of % RH was constantly monitored by the microbalance (accuracy ±0.001 mg). Typically 10-20 mg of sample was placed in a tared mesh stainless steel basket under ambient conditions. The sample was loaded and unloaded at 40% RH and 25° C. (typical room conditions). A moisture sorption isotherm was performed as outlined below (2 scans giving 1 complete cycle). The standard isotherm was performed at 25° C. at 10% RH intervals over a 0-90% RH range.
The software uses a least squares minimisation procedure together with a model of the mass relaxation, to predict an asymptotic value. The measured mass relaxation value must be within 5% of that predicted by the software, before the next % RH value is selected. The minimum equilibration time was set to 1 hour and the maximum to 4 hours. The sample was recovered after completion of the isotherm and re-analysed by XRPD.

A short description of data set [4]: Thermodynamic aqueous solubility.
The nature of data set [5]: Polymorph screen: maturation (temperature cycling RT/50° C.) in solvents. As to the method: One of 21 solvents was added to each vial in a number of aliquots (up to 30 volumes), with shaking. All the samples were then placed under maturation between RT to 50° C. (4 hours at each temperature) for 3 days. After maturation the samples were analysed by XRPD. Clear solutions were cooled to −20° C. (freezer). If no precipitation occurred samples were evaporated at RT.
Samples were placed under maturation between RT-50° C. (4 hours cycle) for 3 days. After maturation the samples were analyzed by XRPD. Clear solutions were then cooled to −20° C. (freezer). If no precipitation occurred, samples were evaporated at RT.
Bis-Sulfuric acid salt Form 1 of Compound 1 (ca. 35 mg) was weighed into vials. The corresponding solvents and solvent mixtures were added in portions of (a total of) 5, 10, 20, and 30 volumes at 50° C., with shaking, aiming for clear solutions. After each addition, the vials were allowed to shake for 20 minutes, after which observations were made. Solutions were allowed to evaporate, whereas slurries were set for 8 hour temperature cycling maturation, between RT and 50° C., for 5 days.
The oils obtained by solvent evaporation were used for the maturation screen. Anhydrous solvents (5 volumes; 100 μL) were used in order to minimise the amount of water present. Any solutions were allowed to slowly evaporate, whereas slurries were set for 8 hour temperature cycling maturation, between RT and 50° C. After 24 hours, most oils had not mixed with the solvents, and these were scratched with a spatula, producing slurries. These were matured for a further 24 hours before performing XRPD analysis.
Amorphous free base Compound 1 (ca. 25 mg) was weighed into vials. The selected solvents and solvent mixtures (5 to 20 volumes) were added with stirring. Any solutions were allowed to slowly evaporate, whereas slurries were set for 8 hour temperature cycling maturation, between RT and 50° C., for 2 days.
Crystals were ground in order to analyse them by XRPD. Suspensions were set for temperature cycling for a total of five days after which time XRPD analysis was carried out. […] Similar to the screen in Example 20, these XRPD patterns show slight differences (FIG. 37). However, solids from both screens obtained from the same solvent show a matching XRPD pattern, also supporting that this is a series of isostructural solvates. […]

Data set [6] is described as follows: 2-Week comparative stability studies. The settings on record: 2 weeks; 5° C. (closed); ambient (closed); ambient (closed-exposed to light); ambient (open); 60° C. (closed); RT/75% RH (open); 40° C./75% RH (open). As to the method: (closed); (ii) ambient (closed); (iii) ambient (closed-exposed to light); (iv) ambient (open); (v) 60° C. (closed); (vi) RT/75% RH (open); and (vii) 40° C./75% RH (open).

A further data set can be described thus: Dissolution. The settings on record: in 15 min at pH 1.2. Here is the method:
The dissolution rate for the hydrate was about 80% in 15 min at pH 1.2 and about 20% in 60 min at pH 2.5. The dissolution rate of the bis-sulfuric acid salt was 100% in 15 min at both pH 1.2 and pH 2.5.

Data set [7] is described as follows: Density and flowability (Hausner ratio, Carr index). From the text:
The Hausner ratio and the Carr index are correlated to the flowability of a powder or granular material. […] The flowability of both salts are acceptable for manufacturing.

Data set [8] can be described thus: Solubility assessment using free base Hydrate Form 2. Here is the method: The best solvent systems (clear solutions) were methanol:anisole 1:1 and DMSO (10 volumes, at RT), dioxane (10 volumes, 50° C.), chloroform (20 volumes, RT). […]
Data set [9] in a line: Stability of Hydrate Form 2 of free base: maturation in water or acetic acid:water. Particulars: 40 hours. As to the method: Both solids obtained from maturation at 25° C.
Assay in data set [10]: as above
Particulars: 40 hours. The source holds these as a separate data set.

Setting [11] is: listed as Compound 1 Free Base Form 2.

≈ marks a conversion by molar mass, not a printed value. Structures can show the parent of a compound that is named as a salt.

In the case of `COc1cc(-c2cccc3cc([C@H](C)Nc4nc(N)ncc4C#N)n(-c4ccccc4)c(=O)c23)ccn1` [Form 1 of the maleic acid salt of Compound 1] [(S)-2-amino-4-((1-(8-(2-methoxypyridin-4-yl)-1-oxo-2-phenyl-1,2-dihydroisoquinolin-3-yl)ethyl)amino)pyrimidine-5-carbonitrile], in [1], the “Storage 40° C./75% RH for 1 week: HPLC Purity” value was “HPLC Purity: 99.8% Peak Area”, the “Storage 40° C./75% RH for 1 week: XRPD (D8)” value is listed as “XRPD (D8): Unchanged” and the “Stability on storage at 40° C./75% RH” value is reported as “stable”. Also, the “Stability on storage at 40° C./75% RH” value in data set [1] (listed as mono-maleic acid salt) is on record as “stable”. In data set [2], the “Storage 25° C./93% RH for 1 week: HPLC Purity” value is listed as “HPLC Purity: 99.8% Peak Area” and the “Storage 25° C./93% RH for 1 week: XRPD (D8)” value is recorded as “XRPD (D8): Unchanged”. Also, the “XRPD post GVS (C2)” value in data set [3] is on record as “Unchanged”. The “GVS Single cycle” value in data set [3] (25° C.) is “Slightly hygroscopic”. The “XRPD (C2) post Aqueous solubility” value in data set [4] (solid after thermodynamic aqueous solubility) is “FB pattern 2”. Further, in [5] (RT to 50° C., 3 days, Ethanol, 2-Propanol, 1-Propanol, Acetone, THF, 2-Propanol/Water (90/10 v/v), EtOH/Water (90/10 v/v), Acetic acid/Water (25/75 v/v): free base recrystallized), the “Salt stability on maturation in solvents” value is reported as “tendency to dissociate”. In addition, in [6], the “Change of water content (KF)” value is “No significant change of water content”. Moreover, in “Dissolution” (listed as Form 1 of mono-maleic acid salt), the dissolution rate was found to be 100%. The “Flowability compared to the hydrate” value in [7] is given as “improved flowability”.
As to `COc1cc(-c2cccc3cc([C@H](C)Nc4nc(N)ncc4C#N)n(-c4ccccc4)c(=O)c23)ccn1` [Form 1 of the sulfuric acid salt of Compound 1] [(S)-2-amino-4-((1-(8-(2-methoxypyridin-4-yl)-1-oxo-2-phenyl-1,2-dihydroisoquinolin-3-yl)ethyl)amino)pyrimidine-5-carbonitrile], in data set [1], the “Storage 40° C./75% RH for 1 week: HPLC Purity” value is “HPLC Purity: Unchanged”, the “Storage 40° C./75% RH for 1 week: XRPD (D8)” value is listed as “XRPD (D8): Unchanged” and the “Stability on storage at 40° C./75% RH” value is reported as “stable”. Further, the “Stability on storage at 40° C./75% RH” value in data set [1] (listed as bis-sulfuric acid salts) is “stable”. Also, in data set [2], the “Storage 25° C./93% RH for 1 week: HPLC Purity” value is “HPLC Purity: Unchanged” and the “Storage 25° C./93% RH for 1 week: XRPD (D8)” value is recorded as “XRPD (D8): Unchanged”. For the same molecule, the “XRPD post GVS (C2)” value in data set [3] is reported as “Unchanged”. The “GVS Single cycle” value in data set [3] (25° C.) is “Slightly hygroscopic”. Besides, the “Solid form after maturation of slurries” value in [5] (slurries in 30 volumes of solvent, RT/50° C. cycling, five days (all experiments other than acetic acid/water, methanol, ethanol/water)) is on record as “did not show any changes”. In addition, the “Change of water content (KF)” value in data set [6] is recorded as “No significant change of water content”. Moreover, in the data set “Dissolution” (listed as Form 1 of bis-sulfuric acid salt monohydrate), the dissolution rate is 100%. Besides, the “Flowability compared to the hydrate” value in data set [7] is reported as “improved flowability”.
For `COc1cc(-c2cccc3cc([C@H](C)Nc4nc(N)ncc4C#N)n(-c4ccccc4)c(=O)c23)ccn1` [Form 2 of the free base of Compound 1, (S)-2-amino-4-((1-(8-(2-methoxypyridin-4-yl)-1-oxo-2-phenyl-1,2-dihydroisoquinolin-3-yl)ethyl)amino)pyrimidine-5-carbonitrile], the figures for the “Stability on storage at 40° C./75% RH” value in data set [1], in [1] (setting [11]) and in data set [1] (listed as Free base Form 2) were “stable”, “Very slight changes after 1 week” and “mainly the same pattern with a few differences”, respectively. Also, the “Stability on storage at 25° C./93% RH” value in [2] was “stable”; in data set [2] (setting [11]), “Very slight changes after 1 week”; in [2] (listed as Free base Form 2) it was “mainly the same pattern with a few differences”. For the same molecule, the “GVS: moisture uptake on loading between 40-50% RH” value in data set [3] came to 1 % w/w. Moreover, the “GVS: moisture on loading” value in data set [3] (loaded at 40% RH, 25° C., listed as Compound 1 Free Base Form 2) is given as 4.7% w/w moisture on loading. Immediate. The results for the “GVS: moisture content reached on uptake at 40-50% RH” value in data set [3] (setting [11]) and in data set [3] (listed as Free base Form 2) were “moisture uptake (40-50% RH up to 5.7% w/w)” and 5.7 % w/w, respectively. Besides, in data set [4] (aqueous, water, thermodynamic from solid, at pH 6.47), the solubility (thermodynamic) (commonly solubility found after equilibrating the solid with the medium) turned out to be 5 µg/mL (≈ 10.2 µM). Also, the “solvent volumes giving a clear solution” value in data set [8] (2-methyltetrahydrofuran) is 50 volumes; in [8] (DCM), 100 volumes; in data set [8] (DCM:methanol 1:1) it was 100 volumes; in data set [8] (DME) it was 100 volumes; in data set [8] (DMSO, at RT), 10 volumes; in data set [8] (THF), 100 volumes. Besides, the “solvent volumes giving a clear solution” value is 50 volumes in data set [8] (THF:5% water); 100 volumes in [8] (acetonitrile/5% water); 20 volumes in data set [8] (chloroform, RT); 10 volumes in data set [8] (dioxane, 50° C.); 50 volumes in data set [8] (ethanol:anisole); 100 volumes in data set [8] (methanol). In data set [8] (methanol:anisole 1:1, at RT), the “solvent volumes giving a clear solution” value worked out at 10 volumes. Moreover, the “Solid form (XRPD) after maturation” value was “stable” in data set [9] (acetic acid:water 1:3, 25° C.); “unchanged Form 2” in data set [9] (acetic acid:water 1:3, 25° C., listed as Hydrate Form 2 of free base of Compound 1); “stable” in data set [9] (pure water, 25° C.); “unchanged Form 2” in [9] (pure water, 25° C., listed as Hydrate Form 2 of free base of Compound 1); “some evidence of the acetic acid solvate Form 6 mixed with a majority of Form 2” in data set [10] (acetic acid:water 1:3, 90° C.); “Form 2” in data set [10] (pure water, 90° C., listed as Hydrate Form 2 of free base of Compound 1). Further, the “Change of water content (KF)” value in data set [6] was “No significant change of water content”. Further, in “Dissolution” (listed as Form 2 of free base hydrate), the dissolution rate entry is recorded as “about 80%”.
